Data reported in patent publication US8722687B2, “Imidazo [1,2-A]pyridine derivatives as FGFR kinase inhibitors for use in therapy” (Astex Therapeutics Ltd, priority 2009, dated 2014).
pIC50: −log10 of the molar value.

Tests used:
VEGFR2 = biological target: T1, VEGFR2 (Homo sapiens, UniProt P35968); assay: VEGFR2 in vitro kinase inhibitory activity assay; type: biochemical; settings: read-out: VEGFR2 IC50(μM) or % I
T1 construct: purchased Upstate
Protocol: FGFR3, VEGFR2 and PDGFR in vitro Kinase Inhibitory Activity Assays
Enzymes (from Upstate), prepared at 2× final concentration, were incubated with test compounds, biotinylated Flt3 substrate (biotin-VASSDNEYFYVDF) (Cell Signalling Technology Inc.) and ATP in the appropriate assay buffer (Table 1). The reaction was allowed to proceed for 3 hours (FGFR3), 1 hour (VEGFR2, PDGFR-beta) at room temperature on a plate shaker at 700 rpm before being stopped with 35 mM EDTA, pH 8 (FGFR3, VEGFR2) or 55 mM EDTA, pH 8 (PDGFR-beta). 5× detection mix/50 mM HEPES pH 7.5, 0.1% BSA, 11.34 nM Eu-anti-pY (PY20) (PerkinElmer) 74 nM SA-XL665 (Cisbio) for FGFR3, 50 mM HEPES, pH 7.5, 0.1% BSA, 11.34 nM Eu-anti-pY (PY20), 187.5 nM SA-XL665 for VEGFR2 and 50 mM HEPES, pH 7.5, 0.1% BSA, 11.34 nM Eu-anti-pY (PT66) (PerkinElmer), 375 nM SA-XL665 (Cisbio) for PDGFR-beta) was then added to each well and the plate sealed and incubated at room temperature for one hour on a plate shaker at 700 rpm. The plate was then read on a Packard Fusion plate reader or a BMG Pherastar both in TRF mode.
Kinase Assay buffers were:
B: 50 mM HEPES pH 7.5, 6 mM MnCl2, 1 mM DTT, 0.01% TritonX-100, 0.1 mM Sodium orthovanadate

[1] = test system: human prostate cancer PC3 cells; assay: EB1 cellular assay (Eb1 Comet assay, microtubule disruption); type: cell-based; settings: PC-3, lowest active concentration: Eb1 foci absent in at least 50% of treated PC3 cells, 1 hour, read-out: Eb1 LAC
Protocol: The Eb1 Comet assay relies on the detection of the Eb1 protein at the plus end of polymerizing microtubules (Mimori-Kiyosue, 2000) using indirect immunofluorescence. Disruption of microtubule dynamics through de-polymerization or stabilization results in a de-localization of Eb1 from the growing microtubule ends and this is visualized by the disappearance of Eb1 containing cytoplasmic foci.
Briefly, human prostate cancer PC3 cells obtained from the American Type Culture Collection were grown in 96-well plates (Greiner, cat. no. 655090) in HAM's F12 medium as recommended by the provider (ATCC). The cells were treated for 1 hour at 37° C. with compounds dissolved in DMSO (0.6% final DMSO concentration). The culture medium was then removed by aspiration and the cells were fixed by adding cold methanol (−20° C.). After a 15 minutes incubation at −20° C., the cells were washed twice with DPBS (Gibco) containing 0.5% Triton X-100. Mouse Eb1 antibody (BD Transduction Laboratories, cat. no. 610534) was added to the cells (1/250 dilution in DPBS containing 1% BSA) and incubated overnight at room temperature. The antibody was subsequently removed and the cells washed twice with DPBS, 0.5% Triton X-100. Secondary goat anti-mouse antibody conjugated to Alexa 488 fluorescent dye (Molecular Probes) was added at a 1/500 dilution in DPBS, 1% BSA and incubated for 1 hour at 37° C. The cells were washed twice with DPBS, 0.5% Triton X-100 and then DPBS containing 0.5% Triton X-100 and 1/5000 Hoechst 33342 (Molecular Probes) was added. Microscopy based Eb1 foci visualization was carried out using an IN Cell Analyser 1000 (Amersham Biosciences) using a 20× objective. Compound dependent microtubule disruption was visually determined by the disappearance in Eb1 foci. The lowest active concentration (LAC) was determined as the concentration where Eb1 foci were absent in at least 50% of the treated cells. Herein the effects of test compounds are expressed as pLAC (the negative log value of the LAC-value)

[2] = test system: parental wild-type Ba/F3 cells; assay: Ba/F3 (WT) cell proliferation assay (Alamar Blue); type: cell-based, murine; settings: read-out: BaF3 WT prolif; for pIC50: BaF3, 72 hours, with mouse IL-3
Protocol: Ba/F3-TEL-FGFR3 & Ba/F3 (WT) Cell Proliferation Assays
Stably transfected Ba/F3-TEL-FGFR3 cells were plated out into black 96-well tissue culture plates with clear bottoms in RPMI medium containing 10% FBS and 0.25 mg/ml G418 at a density of 5×10^3 cells/well (200 μl per well). The parental wild-type Ba/F3 cells (DSMZ no.: ACC 300) were plated out into black 96-well tissue culture plates with clear bottoms in RPMI medium containing 10% FBS and 2 ng/ml mouse IL-3 (R&D Systems) at a density of 2.5×10^3 cells/well (200 μl per well). Plates were placed in an incubator overnight before adding the compounds the following day. Dilutions of compounds were made in DMSO starting at 10 mM and were diluted into the wells to give a final DMSO concentration of 0.1% in assay. Compounds were left on the cells for 72 hours before the plates were removed from the incubator and 20 μl of Alamar Blue™ (Biosource) was added to each well. Plates were placed in the incubator for 4-6 hours before reading plates at 535 nm (excitation)/590 nm (emission) on a Fusion plate reader (Packard). Where inhibition is high an IC50 can be determined.

T1 sequence (P35968 20-1356): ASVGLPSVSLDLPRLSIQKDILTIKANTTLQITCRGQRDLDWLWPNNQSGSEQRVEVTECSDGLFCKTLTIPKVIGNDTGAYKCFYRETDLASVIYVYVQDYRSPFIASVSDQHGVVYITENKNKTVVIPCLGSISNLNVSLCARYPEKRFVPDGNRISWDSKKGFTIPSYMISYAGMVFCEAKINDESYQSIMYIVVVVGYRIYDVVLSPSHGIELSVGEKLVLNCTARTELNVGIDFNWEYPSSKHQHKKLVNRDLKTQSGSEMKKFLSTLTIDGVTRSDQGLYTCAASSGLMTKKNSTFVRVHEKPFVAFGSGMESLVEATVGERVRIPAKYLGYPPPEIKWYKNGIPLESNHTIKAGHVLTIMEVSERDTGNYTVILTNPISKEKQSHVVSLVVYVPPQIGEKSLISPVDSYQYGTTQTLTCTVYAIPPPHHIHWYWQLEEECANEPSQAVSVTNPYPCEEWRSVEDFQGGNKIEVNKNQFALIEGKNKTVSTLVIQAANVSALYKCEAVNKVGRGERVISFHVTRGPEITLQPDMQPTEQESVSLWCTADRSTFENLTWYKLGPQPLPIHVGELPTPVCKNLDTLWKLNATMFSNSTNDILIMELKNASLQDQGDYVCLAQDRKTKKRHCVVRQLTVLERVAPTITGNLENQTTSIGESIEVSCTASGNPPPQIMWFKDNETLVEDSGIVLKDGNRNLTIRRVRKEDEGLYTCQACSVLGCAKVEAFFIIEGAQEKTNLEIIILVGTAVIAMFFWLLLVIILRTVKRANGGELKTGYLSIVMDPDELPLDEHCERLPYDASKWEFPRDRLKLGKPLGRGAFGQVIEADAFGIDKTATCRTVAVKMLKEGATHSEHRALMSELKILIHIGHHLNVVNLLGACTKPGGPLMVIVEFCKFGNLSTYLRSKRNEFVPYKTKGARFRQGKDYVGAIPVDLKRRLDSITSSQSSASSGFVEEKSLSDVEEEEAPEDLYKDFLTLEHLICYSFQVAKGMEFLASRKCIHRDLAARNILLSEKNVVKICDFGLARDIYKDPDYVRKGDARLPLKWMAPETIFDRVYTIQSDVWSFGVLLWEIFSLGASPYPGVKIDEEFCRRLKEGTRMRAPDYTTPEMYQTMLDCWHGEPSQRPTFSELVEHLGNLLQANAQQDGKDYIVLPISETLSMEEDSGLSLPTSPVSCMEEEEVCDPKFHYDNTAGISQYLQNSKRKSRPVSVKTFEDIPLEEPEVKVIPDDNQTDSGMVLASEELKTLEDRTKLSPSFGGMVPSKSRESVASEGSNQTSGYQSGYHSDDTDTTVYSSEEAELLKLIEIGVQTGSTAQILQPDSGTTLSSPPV

Compound	IC50 (VEGFR2)	minimal effective concentration [1]	inhibition at 3 µM ([2]; Mus musculus, BaF3, 72 h)	inhibition at 10 µM ([2]; Mus musculus, BaF3, 72 h)	pIC50 [2]	inhibition at 1 µM ([2]; Mus musculus, BaF3, 72 h, % at 1.00 μM)	inhibition at 1 µM (VEGFR2; 1 h, % I at 1 μM)
Cc1nnc(-c2ccn3c(-c4cc(NC(=O)NCC(F)(F)F)cc(OC(C)C)c4)cnc3c2)s1.Cl [Compound F-20, 1-{3-Isopropoxy-5-[7-(5-methyl-[1,3,4]thiadiazol-2-yl)-imidazo[1,2-a]pyridin-3-yl]-phenyl}-3-(2,2,2-trifluoro-ethyl)-urea]	0.029 µM	0.1 µM	0%	–	–	–	–
Cc1nnc(-c2ccn3c(-c4cc(NC(=O)NCC(F)(F)F)cc(OC(C)C)c4)cnc3c2)o1 [Compound F-5, 1-{3-Isopropoxy-5-[7-(5-methyl-[1,3,4]oxadiazol-2-yl)-imidazo[1,2-a]pyridin-3-yl]-phenyl}-3-(2,2,2-trifluoro-ethyl)-urea]	0.635 µM	> 10 µM	–	59%	–	–	–
CCNC(=O)Nc1cc(OC(C)C)cc(-c2cnc3cc(-c4nnc(C)s4)ccn23)c1 [Compound F-23, 1-Ethyl-3-{3-isopropoxy-5-[7-(5-methyl-[1,3,4]thiadiazol-2-yl)-imidazo[1,2-a]pyridin-3-yl]-phenyl}-urea]	0.087 µM	5 µM	–	5%	–	–	–
CC(C)Oc1cc(NC(=O)NCC(F)(F)F)cc(-c2cnc3cc(C(=O)C4CC4)ccn23)c1 [Compound F-6, 1-[3-(7-Cyclopropanecarbonyl-imidazo[1,2-a]pyridin-3-yl)-5-isopropoxy-phenyl]-3-(2,2,2-trifluoro-ethyl)-urea]	0.074 µM	3 µM	–	–	5.25	–	–
Cc1nc(-c2ccn3c(-c4cc(NC(=O)NCC(F)(F)F)cc(OC(C)C)c4)cnc3c2)ccc1F [Compound F-3, 1-{3-[7-(5-Fluoro-6-methyl-pyridin-2-yl)-imidazo[1,2-a]pyridin-3-yl]-5-isopropoxy-phenyl}-3-(2,2,2-trifluoro-ethyl)-urea]	0.48 µM	> 10 µM	–	–	~5.10	–	–
COCc1cc(NC(=O)NCC(F)(F)F)cc(-c2cnc3cc(-c4ccnc(C(F)(F)F)n4)ccn23)c1 [Compound F-9, 1-{3-Methoxymethyl-5-[7-(2-trifluormethyl-pyrimidin-4-yl)-imidazo[1,2-a]pyridin-3-yl]-phenyl}-3-(2,2,2-trifluoro-ethyl)-urea]	0.057 µM	2 µM	17%	–	–	–	–
CC(C)Oc1cc(NC(=O)NCC(F)(F)F)cc(-c2cnc3cc(OCCO)ccn23)c1 [Compound F-17, 1-{3-[7-(2-Hydroxy-ethoxy)-imidazo[1,2-a]pyridin-3-yl]-5-isopropoxy-phenyl}-3-(2,2,2-trifluoro-ethyl)-urea]	0.51 µM	3 µM	–	0%	–	–	–
CCNC(=O)Nc1cc(OC(C)C)cc(-c2cnc3cc(-c4nncs4)ccn23)c1 [Compound F-10, 1-Ethyl-3-[3-isopropoxy-5-(7-[1,3,4]thiadiazol-2-yl-imidazo[1,2-a]pyridin-3-yl)-phenyl]-urea]	0.36 µM	5 µM	–	34%	–	–	–
CC(C)Oc1cc(NC(=O)NCC(F)(F)F)cc(-c2cnc3cc(-c4ccnc(C(F)(F)F)n4)ccn23)c1 [Compound F-8, 1-{3-Isopropoxy-5-[7-(2-trifluoromethyl-pyrimidin-4-yl)-imidazo[1,2-a]pyridin-3-yl]-phenyl}-3-(2,2,2-trifluoro-ethyl)-urea]	1.2 µM	5 µM	–	–	~5.70	–	–
Cc1cn(-c2ccn3c(-c4cc(NC(=O)NCC(F)(F)F)cc(OC(C)C)c4)cnc3c2)cn1 [Compound F-28, 1-{3-Isopropoxy-5-[7-(4-methylimidazol-1-yl)-imidazo[1,2-a]pyridin-3-yl]-phenyl}-3-(2,2,2-trifluoro-ethyl)-urea]	0.077 µM	5 µM	–	73%	–	–	–
CCOc1cc(NC(=O)NCC(F)(F)F)cc(-c2cnc3cc(-c4nnc(C)o4)ccn23)c1 [Compound F-15, 1-{3-Ethoxy-5-[7-(5-methyl-[1,3,4]oxadiazol-2-yl)-imidazo[1,2-a]pyridin-3-yl]-phenyl}-3-(2,2,2-trifluoro-ethyl)-urea]	0.34 µM	10 µM	–	23%	–	–	–
CC(C)Oc1cc(NC(=O)NCC(F)(F)F)cc(-c2cnc3cc(-c4ncc(F)c(N)n4)ccn23)c1 [Compound F-1, 1-{3-[7-(4-Amino-5-fluoro-pyrimidin-2-yl)-imidazo[1,2-a]pyridin-3-yl]-5-isopropoxy-phenyl}-3-(2,2,2-trifluoro-ethyl)-urea]	1.35 µM	> 10 µM	–	42%	–	–	–
CC(C)Oc1cc(NC(=O)NCC(F)(F)F)cc(-c2cnc3cc(-c4ncccn4)ccn23)c1 [Compound F-2, 1-[3-Isopropoxy-5-(7-pyrimidin-2-yl-imidazo[1,2-a]pyridin-3-yl)-phenyl]-3-(2,2,2-trifluoro-ethyl)-urea]	1.14 µM	> 10 µM	–	33%	–	–	–
CC(C)Oc1cc(NC(=O)NCC(F)(F)F)cc(-c2cnc3cc(-c4nncs4)ccn23)c1.Cl [Compound F-19, 1-[3-Isopropoxy-5-(7-[1,3,4]thiadiazol-2-yl-imidazo[1,2-a]pyridin-3-yl)-phenyl]-3-(2,2,2-trifluoro-ethyl)-urea]	0.092 µM	3 µM	–	–	–	0%	–
COCc1cc(NC(=O)NCC(F)(F)F)cc(-c2cnc3cc(-c4nnc(C)o4)ccn23)c1 [Compound F-7, 1-{3-Methoxymethyl-5-[7-(5-methyl-[1,3,4]oxadiazol-2-yl)-imidazo[1,2-a]pyridin-3-yl]-phenyl}-3-(2,2,2-trifluoro-ethyl)-urea]	0.17 µM	10 µM	–	0%	–	–	–
Cc1nc(N)cc(-c2ccn3c(-c4cc(NC(=O)NCC(F)(F)F)cc(OC(C)C)c4)cnc3c2)n1 [Compound F-4, 1-{3-[7-(6-Amino-2-methyl-pyrimidin-4-yl)-imidazo[1,2-a]pyridin-3-yl]-5-isopropoxy-phenyl}-3-(2,2,2-trifluoro-ethyl)-urea]	0.1 µM	1 µM	–	5%	–	–	–
Cc1nnc(-c2ccn3c(-c4cc(NC(=O)NCC(F)(F)F)cc(OC5CCC5)c4)cnc3c2)o1 [Compound F-11, 1-{3-Cyclobutoxy-5-[7-(5-methyl-[1,3,4]oxadiazol-2-yl)-imidazo[1,2-a]pyridin-3-yl]-phenyl}-3-(2,2,2-trifluoro-ethyl)-urea]	–	> 10 µM	–	14%	–	–	59%
